Measurements: ChEMBL document CHEMBL5729557, “5-membered heteroaryl carboxamide compounds for treatment of HBV” (2023)
Values joined by “and” are separate entries in the source; they are usually repeats but may differ in a detail not shown here. Equal entries are not always repeated.

Assay: Assay Measuring Activity of Test Compounds on Viral Production from HepAD38 Cells: HepAD38 cells grown in a T-150 flask (Corning, cat #: 430825) with Growth Medium (DMEM/F12 (1:1) (Hyclone, cat #: SH30023.02), 1× Pen/Strep (Invitrogen, cat #: 15140-122), 10% FBS (Tissue Culture Biologics, cat #: 101), 250 μg/mL G418 (Alfa Aesar, cat #: J62671), 1 μg/mL Tetracycline (Teknova, cat #: T3320)) were detached with 0.25% trypsin-EDTA to (Invitrogen, cat #: 25200-056). Tetracycline-free treatment medium (15 mL DMEM/F12 (1:1) 1× Pen/step, with 2% FBS, Tet-system approved (Clontech, cat #: 631106) were then added to mix, transferred into a 50 ml conical tube (Falcon, cat #: 21008-918,) and spun at 1300 rpm for 5 min. Pelleted cells were then re-suspended/washed with 50 mL of 1×DPBS (Invitrogen, cat #: 14190-136) 2 times and 50 mL treatment medium twice. HepAD38 cells were then re-suspended with 10 mL of treatment medium, syringed and counted. Wells of 96-well clear bottom TC plate (Corning, cat #: 3904,) were seeded at 50,000 cells/well in 180 μL of treatment medium, and 20 μL of either 10% DMSO (Sigma, cat #: D4540) as controls or a 10× solution of test compounds in 10% DMSO in treatment media was added for a final compound concentration starting at 10 μM, and plates were incubated in 5% CO2 incubator at 37° C. for 5 days.Subsequently viral load production was assayed by quantitative PCR (qPCR) of the HBV core sequence. PCR reaction mixture containing forward primers HBV-f 5′-CTGTGCCTTGGGTGGCTTT-3′ (IDT DNA), Reverse primers HBV-r 5′-[…]-3′ (IDT DNA), Fluorescent TaqMan™ Probes HBV-probe 5′-FAM/AGCTCCAAA/ZEN/[…]/3IABkFQ-3′ (IDT DNA), 10 μL/well of PerfeCTa® qPCR ToughMix® (Quanta Biosciences, Cat #: 95114-05K), and 6 μL/well of DEPC water (Alfa Aesar, cat #: J62087) was prepared. […] of supernatant was added to 16 μL of the reaction mixture in a qPCR plate (Applied Biosytems, Cat #: 4309849), sealed with a film (Applied Biosystems, Cat #: 4311971), centrifuged for a few seconds, and subsequently run on an Applied Biosystems VIIA7. The PCR mixture was incubated at 45° C. for 5 min, then 95° C. for 10 min, followed by 40 cycles of 10 seconds at 95° C. and 20 seconds at 60° C. Viral load was quantified against known HBV DNA standards by using ViiA™ 7 Software. Viral load in the supernatant from wells with treated cells were compared against viral load in supernatant from DMSO control wells (>3 per plate). Cell viability assay was performed with CellTiter-Glo Luminescent Cell Viability Assay (Promega, cat #: G7573) with modification. Mixed appropriate amount of CellTiter-Glo (CTG) 1×DPBS in a 1:1 ratio, added 100 uL of the mixture to each well followed completely removal of all supernatant in each well without touching cell surface. Incubated the plate at room temperature for 10 min on an orbital shaker, and then read the plate with a plate reader (TECAN M1000 or Envision).
Conditions: not given
In the case of COC(=O)CC1(O)CC2CC(c3nn(C)c(N)c3C(=O)Nc3ccc(F)c(Cl)c3)CC2C1 (stereo not drawn), the EC50 is reported as less than 100 nM.
For Cn1nc(C2CC3CC(O)(CS(=O)(=O)NC4CC4)CC3C2)c(C(=O)Nc2ccc(F)c(Cl)c2)c1N (stereo not drawn), the EC50 was “in the range around 300 nM and < 100 nM”.
Compound Cn1nc(C2CC3COC(=O)CC3C2)c(C(=O)Nc2ccc(F)c(Cl)c2)c1N (stereo not drawn) has an EC50 of less than 100 nM.

Same assay, conditions: HePAD38
Cn1nc([C@H]2CC3CC(O)(C[S+]([O-])CC(F)(F)F)C[C@H]3C2)c(C(=O)Nc2ccc(F)c(Cl)c2)c1N (stereo partly drawn) gave an EC50 of less than 100 nM.
With Cn1nc(C2CC3CC(N4CCNC4=O)CC3C2)c(C(=O)Nc2ccc(F)c(Cl)c2)c1N (stereo not drawn) the EC50 was less than 100 nM.
With Cn1nc(C2CC3CC(CCO)CC3C2)c(C(=O)Nc2ccc(F)c(Cl)c2)c1N (stereo not drawn) the EC50 was less than 100 nM.
COc1cccc(C2CCC(c3nn(C)c(N)c3C(=O)Nc3ccc(F)c(Cl)c3)C2)c1 (stereo not drawn) gave an EC50 of less than 100 nM.
Compound Cn1cc(-c2ccc([C@H]3CC[C@H](c4nn(C)c(N)c4C(=O)Nc4ccc(F)c(Cl)c4)C3)cc2)cn1 has an EC50 of less than 100 nM.
With Cn1nc([C@@H]2CC3COC(=O)C[C@H]3C2)c(C(=O)Nc2ccc(F)c(Cl)c2)c1N (stereo partly drawn) the EC50 was “in the range around 300 nM”.
For Cn1nc([C@H]2C[C@H](c3ccccc3)C2)c(C(=O)Nc2ccc(F)c(Cl)c2)c1N, the EC50 was “in the range around 300 nM”.
Compound Cn1nc(C2CC3CC(N4CCOC4=O)CC3C2)c(C(=O)Nc2ccc(F)c(Cl)c2)c1N (stereo not drawn) has an EC50 of less than 100 nM.
In the case of CCSC1CC2CC(c3nn(C)c(N)c3C(=O)Nc3ccc(F)c(Cl)c3)CC2C1 (stereo not drawn), the EC50 is reported as less than 100 nM.
CC(C)C1(O)CC2C[C@@H](c3nn(C)c(N)c3C(=O)Nc3ccc(F)c(Cl)c3)C[C@H]2C1O (stereo partly drawn) showed an EC50 of less than 100 nM.
Compound CSC1CC2CC(c3nn(C)c(N)c3C(=O)Nc3ccc(F)c(Cl)c3)CC2C1 (stereo not drawn) has an EC50 of less than 100 nM.
In the case of CC(=O)Nc1ccc(C2CCC(c3nn(C)c(N)c3C(=O)Nc3ccc(F)c(Cl)c3)C2)cc1 (stereo not drawn), the EC50 is reported as less than 100 nM.
Cn1nc([C@@H]2CC3CC(O)(CS(=O)(=O)CCO)C[C@H]3C2)c(C(=O)Nc2ccc(F)c(Cl)c2)c1N (stereo partly drawn) showed an EC50 of less than 100 nM.
For Cn1nc([C@@H]2CC3CC(O)(CSCCN4CCOCC4)C[C@@H]3C2)c(C(=O)Nc2ccc(F)c(Cl)c2)c1N (stereo partly drawn), the EC50 was less than 100 nM.
Cn1nc([C@@H]2CC[C@@H](c3ccccc3)C2)c(C(=O)Nc2ccc(F)c(Cl)c2)c1N gave an EC50 of less than 100 nM.
Compound COC(=O)N1CC2CC(c3nn(C)c(N)c3C(=O)Nc3ccc(F)c(Cl)c3)CC2C1 (stereo not drawn) has an EC50 of less than 100 nM.
Work on Cn1nc(C2CC3CNC(=O)CC3C2)c(C(=O)Nc2ccc(F)c(Cl)c2)c1N (stereo not drawn) yielded an EC50 of less than 100 nM.
Compound Cn1nc(C2CC3CC(NS(=O)(=O)C(F)(F)F)CC3C2)c(C(=O)Nc2ccc(F)c(Cl)c2)c1N (stereo not drawn) has an EC50 of less than 100 nM.
For Cn1nc([C@@H]2CC3CC(O)(CSCCN4CCOCC4)C[C@H]3C2)c(C(=O)Nc2ccc(F)c(Cl)c2)c1N (stereo partly drawn), the EC50 was less than 100 nM.
Cn1nc([C@@H]2CC3CC(O)(CS(=O)(=O)C4CC4)C[C@H]3C2)c(C(=O)Nc2ccc(F)c(Cl)c2)c1N (stereo partly drawn) showed an EC50 of less than 100 nM.
CC(=O)N1CC2CC(c3nn(C)c(N)c3C(=O)Nc3ccc(F)c(Cl)c3)CC2C1 (stereo not drawn) showed an EC50 of less than 100 nM.
With Cn1nc(C2CC3CC(O)(C4CC4)CC3C2)c(C(=O)Nc2ccc(F)c(Cl)c2)c1N (stereo not drawn) the EC50 was less than 100 nM.
Cn1nc(C2CC3CC(N4CCCS4(=O)=O)CC3C2)c(C(=O)Nc2ccc(F)c(Cl)c2)c1N (stereo not drawn) gave an EC50 of less than 100 nM.
Work on Cn1nc(C2CCC(c3ccc(F)cc3)C2)c(C(=O)Nc2ccc(F)c(Cl)c2)c1N (stereo not drawn) yielded an EC50 of less than 100 nM.
In the case of Cn1nc(C2CC3CC(N4CCC4)CC3C2)c(C(=O)Nc2ccc(F)c(Cl)c2)c1N (stereo not drawn), the EC50 is reported as “in the range around 300 nM”.
Work on COC(=O)CC1(O)CC2CC(c3nn(C)c(N)c3C(=O)Nc3ccc(F)c(Cl)c3)CC2C1 (stereo not drawn) yielded an EC50 of less than 100 nM.
For COC1CC2CC(c3nn(C)c(N)c3C(=O)Nc3ccc(F)c(Cl)c3)CC2C1 (stereo not drawn), the EC50 was less than 100 nM.
With CCC1OC[C@]2(CC3C[C@H](c4nn(C)c(N)c4C(=O)Nc4ccc(F)c(Cl)c4)C[C@@H]3C2)O1 (stereo partly drawn) the EC50 was less than 100 nM.
In the case of CS(=O)(=O)CC1(O)CC2CC(c3n[nH]c(N)c3C(=O)Nc3ccc(F)c(Cl)c3)CC2C1 (stereo not drawn), the EC50 is reported as less than 100 nM.
Compound CNC(=O)C1CC2CC(c3nn(C)c(N)c3C(=O)Nc3ccc(F)c(Cl)c3)CC2C1 (stereo not drawn) has an EC50 of less than 100 nM.
With COCCOc1ccc(C2CCC(c3nn(C)c(N)c3C(=O)Nc3ccc(F)c(Cl)c3)C2)cc1 (stereo not drawn) the EC50 was less than 100 nM.
With COc1cc(-c2c[nH]cn2)ccc1[C@@H]1CC[C@@H](c2nn(C)c(N)c2C(=O)Nc2ccc(F)c(Cl)c2)C1 the EC50 was less than 100 nM.
In the case of Cn1nc(C2CCC(c3ccc(OC(F)(F)F)cc3)C2)c(C(=O)Nc2ccc(F)c(Cl)c2)c1N (stereo not drawn), the EC50 is reported as “in the range around 5250 nM”.
Work on Cn1nc(C2CC3CC(O)(CSCCO)CC3C2)c(C(=O)Nc2ccc(F)c(Cl)c2)c1N (stereo not drawn) yielded an EC50 of less than 100 nM.
Cn1nc(C2CC3COC(=O)CC3C2)c(C(=O)Nc2ccc(F)c(Cl)c2)c1N (stereo not drawn) showed an EC50 of less than 100 nM.
